According to the NIST ThermoML archive (doi:10.1016/j.jct.2008.12.018):
± gives the expanded uncertainty stated by the source.

Assay: activity coefficient (dimensionless); of the first substance listed, at infinite dilution; xn = mol fraction of the nth substance listed
Settings: Liquid, Chromatography, x1 = 0

| Compound | activity coefficient (298.15 K) | activity coefficient (308.15 K) | activity coefficient (318.15 K) | activity coefficient (328.15 K) | activity coefficient (338.15 K) | activity coefficient (348.15 K) | activity coefficient (358.15 K) | activity coefficient (368.15 K) | activity coefficient (298.15 K, 101 kPa) | activity coefficient (308.15 K, 101 kPa) | activity coefficient (318.15 K, 101 kPa) | activity coefficient (328.15 K, 101 kPa) | activity coefficient (338.15 K, 101 kPa) | activity coefficient (348.15 K, 101 kPa) | activity coefficient (358.15 K, 101 kPa) | activity coefficient (368.15 K, 101 kPa) |
| --- | --- | --- | --- | --- | --- | --- | --- | --- | --- | --- | --- | --- | --- | --- | --- | --- |
| CCCCCCCCCC [decane] + CCCCn1cc[n+](C)c1.N#C[S-] | 628 ± 43 | 581 ± 40 | 533 ± 26 | 470 ± 23 | 426 ± 20 | 386 ± 19 | 351 ± 17 | – | – | – | – | – | – | – | – | – |
| CCO [ethanol] + CCCCn1cc[n+](C)c1.N#C[S-] | 0.743 ± 0.049 | 0.709 ± 0.047 | 0.69 ± 0.046 | 0.671 ± 0.045 | 0.655 ± 0.045 | 0.643 ± 0.044 | 0.631 ± 0.044 | 0.623 ± 0.043 | – | – | – | – | – | – | – | – |
| CCc1ccccc1 [ethylbenzene] + CCCCn1cc[n+](C)c1.N#C[S-] | 5.86 ± 0.4 | 5.9 ± 0.4 | 5.93 ± 0.4 | 5.86 ± 0.4 | 5.93 ± 0.4 | 5.83 ± 0.4 | 5.82 ± 0.4 | 5.81 ± 0.4 | – | – | – | – | – | – | – | – |
| CCCCCCC [heptane] + CCCCn1cc[n+](C)c1.N#C[S-] | 281 ± 19 | 245 ± 17 | 213 ± 15 | 183 ± 13 | 162 ± 11 | 146 ± 10 | 132 ± 9 | – | – | – | – | – | – | – | – | – |
| C=CCCCC [hex-1-ene] + CCCCn1cc[n+](C)c1.N#C[S-] | 61.6 ± 4.2 | 54.8 ± 3.8 | 50.2 ± 3.4 | 44.9 ± 3.1 | 41.4 ± 2.8 | 38.3 ± 2.6 | 36.4 ± 2.5 | – | – | – | – | – | – | – | – | – |
| CCCCCC [hexane] + CCCCn1cc[n+](C)c1.N#C[S-] | 226 ± 16 | 189 ± 13 | 167 ± 11 | 143 ± 10 | 126 ± 9 | 108 ± 7 | 100 ± 7 | – | – | – | – | – | – | – | – | – |
| CO [methanol] + CCCCn1cc[n+](C)c1.N#C[S-] | 0.416 ± 0.035 | 0.396 ± 0.034 | 0.396 ± 0.034 | 0.391 ± 0.034 | 0.387 ± 0.034 | 0.386 ± 0.033 | 0.383 ± 0.033 | 0.382 ± 0.033 | – | – | – | – | – | – | – | – |
| CCCCCCCCC [nonane] + CCCCn1cc[n+](C)c1.N#C[S-] | 459 ± 32 | 414 ± 28 | 376 ± 26 | 332 ± 23 | 298 ± 20 | 272 ± 19 | 252 ± 17 | – | – | – | – | – | – | – | – | – |
| C=CCCCCCC [oct-1-ene] + CCCCn1cc[n+](C)c1.N#C[S-] | 111 ± 8 | 102 ± 7 | 96.3 ± 6.6 | 88.1 ± 6 | 82.5 ± 5.7 | 77.6 ± 5.3 | 73.8 ± 5.1 | – | – | – | – | – | – | – | – | – |
| CCCCCCCC [octane] + CCCCn1cc[n+](C)c1.N#C[S-] | 350 ± 24 | 311 ± 21 | 279 ± 19 | 243 ± 17 | 218 ± 15 | 198 ± 14 | 180 ± 12 | – | – | – | – | – | – | – | – | – |
| CCCCCO [pentan-1-ol] + CCCCn1cc[n+](C)c1.N#C[S-] | – | – | 1.62 ± 0.11 | 1.54 ± 0.1 | 1.5 ± 0.1 | 1.47 ± 0.1 | 1.45 ± 0.1 | 1.44 ± 0.09 | – | – | – | – | – | – | – | – |
| CCCO [propan-1-ol] + CCCCn1cc[n+](C)c1.N#C[S-] | – | 0.93 ± 0.06 | 0.9 ± 0.06 | 0.87 ± 0.06 | 0.84 ± 0.05 | 0.83 ± 0.05 | 0.81 ± 0.05 | 0.8 ± 0.05 | – | – | – | – | – | – | – | – |
| C1CCOC1 [tetrahydrofuran] + CCCCn1cc[n+](C)c1.N#C[S-] | – | – | – | – | – | – | – | – | 2 ± 0.14 | 1.98 ± 0.13 | 1.99 ± 0.14 | 1.99 ± 0.14 | 1.99 ± 0.14 | 1.99 ± 0.14 | 1.99 ± 0.14 | 2.01 ± 0.14 |
| c1ccsc1 [thiophene] + CCCCn1cc[n+](C)c1.N#C[S-] | 1.21 ± 0.078 | 1.24 ± 0.08 | 1.26 ± 0.081 | 1.27 ± 0.082 | 1.29 ± 0.084 | 1.32 ± 0.085 | 1.33 ± 0.086 | 1.36 ± 0.089 | – | – | – | – | – | – | – | – |
| Cc1ccccc1 [toluene] + CCCCn1cc[n+](C)c1.N#C[S-] | 3.4 ± 0.23 | 3.48 ± 0.24 | 3.52 ± 0.24 | 3.53 ± 0.24 | 3.55 ± 0.24 | 3.59 ± 0.24 | 3.62 ± 0.25 | 3.65 ± 0.25 | – | – | – | – | – | – | – | – |
